Measurements from US20250250227A1, “AMINO LIPID COMPOUND, PREPARATION METHOD THEREFOR, COMPOSITION THEREOF AND USE THEREOF” (SHENZHEN SHENXIN BIOTECHNOLOGY CO., LTD., priority 2022, published 2025).

How the values were obtained:
[1] = Preparation and characterisation of mRNA-encapsulating lipid nanoparticle (encapsulation efficiency, particle size); assay type: physicochemical; conditions: LNP encapsulating Fluc mRNA; Lipid:DSPC:CHO-HP:M-DMG-2000 48:10:40.5:1.5
Procedure: A specified amount of Fluc mRNA stock solution, 0.2 M sodium acetate buffer, and DEPC water were added to a container, and mixed well to obtain a water phase;
The amino lipid compound of the present disclosure, a helper lipid, a structural lipid, and a PEG-lipid were separately dissolved in absolute ethanol to prepare respective solutions at concentrations of 20 mg/mL, 10 mg/mL, 20 mg/mL, and 25 mg/mL, respectively. The above four solutions were pipetted at a molar ratio of Lipid:DSPC:CHO—HP:M-DMG-2000 of 48:10:40.5:1.5, and mixed well to prepare an alcohol phase. • (2) Encapsulation: The water phase and the alcohol phase were injected into a microfluidic chip at a flow rate of water phase: alcohol phase=12 mL/min: 4 mL/min by using a microfluidic preparation instrument (MPE-L2), and encapsulation was carried out at a flow rate of water phase: alcohol phase=9 mL/min: 3 mL/min to obtain mRNA-encapsulating lipid nanoparticle (mRNA-LNP). • (3) Dialysis: The product of step (2) was loaded in a dialysis bag and placed in a Tris Buffer-8% sucrose solution for replacement to remove ingredients such as residual ethanol, unassembled lipids. Dialysis was conducted for 2 h with magnetic stirring at room temperature and under protection from light (dialysate was replaced every 1 hour). • (4) The product of step (3) was sterilized by passing through a […] microporous membrane, and then packaged.
Lipid nanoparticle formulations encapsulating Fluc mRNA were prepared, with a concentration of Fluc mRNA of 0.2 g/L, a mass ratio of Fluc mRNA to Lipid of 1:10, a particle size of 80-130 nm, and a encapsulation efficiency of 85% or higher.
The encapsulation efficiency of the lipid nanoparticle encapsulating luciferase mRNA (Fluc mRNA) with a representative amino lipid compound and the fluorescence expression intensity induced by the same are shown in Table 4, with the amino lipid compound 118 as a control. […]

Female BALB/c mice = assay: Performance evaluation of in vivo delivery of Fluc mRNA lipid nanoparticle (IVIS, body and organs); conditions: Fluc mRNA LNP; for Liver (fluorescence expression intensity) / Spleen (fluorescence expression intensity): 75 μL IV; for Liver (fluorescence expression intensity) / Spleen (fluorescence expression intensity) / Total flux (fluorescence expression intensity) / (Spleen/Total Flux) * 100%: 6 hours after injection; for Liver (fluorescence expression intensity) / Spleen (fluorescence expression intensity) / Total flux (fluorescence expression intensity): IVIS; for Total flux (fluorescence expression intensity): 75 μL tail vein injection (IV); for (Spleen/Total Flux) * 100% / Multiple of spleen delivery/total delivery to amino lipid compound 118: IV; for Multiple of spleen delivery/total delivery to amino lipid compound 118: relative to amino lipid compound 118
Procedure: Animal preparation: Female BALB/c mice of 6-8 weeks old were selected and raised in an SPF grade breeding room. Animal testing was conducted in strict accordance with the guidelines of national health institutions and animal ethics requirements.
In vivo Delivery: prior to injection of the test LNP formulations, the LNP formulations were gently and repeatedly inverted to thoroughly mix the formulation samples. A corresponding amount of the formulation samples were aspirated with a 1 ml insulin syringe, and the LNP formulations were injected by tail vein injection (IV), with 3 mice in duplicate per formulation. Each mouse was injected with 75 μL of the luciferase mRNA (Fluc mRNA)-encapsulating lipid nanoparticle formulation prepared in Experimental Example 1.
6 hours after injection of LNP formulations, mice were injected with 200 μL D-Luciferin luciferase developing substrate (Catalog No. 122799; Manufacturer: Perkin Elmer). After the substrate was injected, the mice were anesthetized with isoflurane inhalation, and the injection time of luciferase developing substrate was recorded.
The encapsulation efficiency of the lipid nanoparticle encapsulating luciferase mRNA (Fluc mRNA) with a representative amino lipid compound and the fluorescence expression intensity induced by the same are shown in Table 4, with the amino lipid compound 118 as a control.
The multiple of spleen delivery/total delivery of fluorescence expression intensity induced by lipid nanoparticle encapsulating luciferase mRNA (Fluc mRNA) with a representative amino lipid compound to amino lipid compound 118 is shown in Table 5.

Row | SMILES | Encapsulation efficiency [1] | Liver (fluorescence expression intensity) (Female BALB/c mice) | Spleen (fluorescence expression intensity) (Female BALB/c mice) | Total flux (fluorescence expression intensity) (Female BALB/c mice) | (Spleen/Total Flux) * 100% (Female BALB/c mice) | Multiple of spleen delivery/total delivery to amino lipid compound 118 (Female BALB/c mice)
1 | CCCCCCC(CCCC)COC(=O)CCCCCCCCC(CCCCCCCCC(=O)OCC(CCCC)CCCCCC)OC(=O)N(CCCC(=O)OCCCCC)CCCN(C)C (stereo not drawn) [Compound 371] | 93.17% | 2.92E+08 | 2.36E+07 | 1.12E+09 | 2.11% | 6.20
2 | CCCCCCC(CCCCCC)OC(=O)CCCCCCCCC(CCCCCCCCC(=O)OC(CCCCCC)CCCCCC)OC(=O)N(CCCCC(=O)OC(C)CCCC)CCCN(C)C (stereo not drawn) [Compound 305] | 90.70% | 9.19E+07 | 7.03E+06 | 6.71E+08 | 1.05% | 3.08
3 | CCCCCCC(CCCCCC)OC(=O)CCCCCCCCC(CCCCCCCCC(=O)OC(CCCCCC)CCCCCC)OC(=O)N(CCCN(C)C)CC(=O)OC(CC)CCCCC (stereo not drawn) [Compound 338] | 91.13% | 1.07E+08 | 3.20E+06 | 6.32E+08 | 0.51% | 1.49
4 | CCCCCCC(CCCCCC)OC(=O)CCCCCCCCC(CCCCCCCCC(=O)OC(CCCCCC)CCCCCC)OC(=O)N(CCCCC)CCCN(C)C [Compound 108] | 91.78% | 6.84E+07 | 1.02E+06 | 3.40E+08 | 0.30% | 0.88
5 | CC/C=C\CCOC(=O)CCCN(CCCN(C)C)C(=O)OC(CCCCCCCCC(=O)OC(CCCCCC)CCCCCC)CCCCCCCCC(=O)OC(CCCCCC)CCCCCC [Compound 277] | 91.00% | 7.98E+07 | 8.42E+06 | 3.14E+08 | 2.68% | 7.89
6 | CCCCCCC(CCCCCC)OC(=O)CCCCCCCCC(CCCCCCCCC(=O)OC(CCCCCC)CCCCCC)OC(=O)N(CCCCCC)CCCN(C)C [Compound 109] | 92.87% | 5.22E+07 | 8.53E+05 | 2.80E+08 | 0.30% | 0.90
7 | CCCCCCC(CCCCCC)OC(=O)CCCCCCCCC(CCCCCCCCC(=O)OC(CCCCCC)CCCCCC)OC(=O)N(CCCN(C)C)CCC(=O)OC(C)CCCCC (stereo not drawn) [Compound 322] | 90.32% | 9.73E+07 | 6.56E+06 | 7.90E+08 | 0.83% | 2.44
8 | CCCCCCC(CCCCCC)OC(=O)CCCCCCCCC(CCCCCCCCC(=O)OC(CCCCCC)CCCCCC)OC(=O)N(CCCCC(=O)OC(CC)CCC)CCCN(C)C (stereo not drawn) [Compound 306] | 91.92% | 4.13E+07 | 5.44E+06 | 2.45E+08 | 2.22% | 6.53
9 | CCCCCCC(CCCCCC)OC(=O)CCCCCCCCC(CCCCCCCCC(=O)OC(CCCCCC)CCCCCC)OC(=O)N(CCCCN1CCCC1)CC(=O)OCC [Compound 368] | 87.51% | 6.14E+07 | 1.25E+07 | 3.97E+08 | 3.15% | 9.26
10 | CCCCCCC(CCCCCC)OC(=O)CCCCCCCCC(CCCCCCCCC(=O)OC(CCCCCC)CCCCCC)OC(=O)N(CCCC(=O)OC(C)CCC)CCCN(C)C (stereo not drawn) [Compound 309] | 91.62% | 4.90E+07 | 3.44E+06 | 3.69E+08 | 0.93% | 2.74
11 | CCCCCCC(CCCCCC)OC(=O)CCCCCCCCC(CCCCCCCCC(=O)OC(CCCCCC)CCCCCC)OC(=O)N(CCCCC(=O)OC(CC)CC)CCCN(C)C [Compound 304] | 92.03% | 1.06E+08 | 1.48E+07 | 5.18E+08 | 2.86% | 8.40
12 | CCCCCCC(CCCCCC)OC(=O)CCCCCCCCC(CCCCCCCCC(=O)OC(CCCCCC)CCCCCC)OC(=O)N(CCCC(=O)OC(C)CC)CCCN(C)C (stereo not drawn) [Compound 308] | 93.71% | 9.58E+07 | 4.93E+06 | 6.29E+08 | 0.78% | 2.31
13 | CCCCCCC(CCCCCC)OC(=O)CCCCCCCCC(CCCCCCCCC(=O)OC(CCCCCC)CCCCCC)OC(=O)N(CCCCCC(=O)OCC)CCCN1CCCC1 [Compound 365] | 92.45% | 9.03E+07 | 4.45E+06 | 6.73E+08 | 0.66% | 1.94
14 | CCCCCCCN(CCCN(C)C)C(=O)OC(CCCCCCCCC(=O)OC(CCCCCC)CCCCCC)CCCCCCCCC(=O)OC(CCCCCC)CCCCCC [Compound 110] | 90.82% | 5.83E+07 | 8.71E+05 | 2.44E+08 | 0.36% | 1.05
